Reference: patent US12403137B2, “Compounds and methods of use” (Tango Therapeutics, Inc., priority 2019, dated 2025)

Key:
PRMT5 [1] = biological target: T1, PRMT5 (Homo sapiens, UniProt O14744); assay: PRMT5 inhibition assay with SAM as cofactor; type: biochemical; conditions: against PRMT5 in the presence of SAM as cofactor
T1 construct: purchased Viva (custom protein)
Excerpt: (§1) The Ki values can be calculated from the IC50 values as described in the Examples section. As detailed in the Examples section, for the assay performed in the presence of SAM, IC50=Ki×1.5 (Ki=IC50/1.5). For the assay performed in the presence of MTA, IC50=Ki×13.5 (Ki=IC50/13.5). Column 6 indicates the ratio between the Ki of compounds in the presence of SAM and the Ki of compounds in the presence of MTA

PRMT5 [2] = biological target: T1, PRMT5; assay: PRMT5 inhibition assay with no cofactor; type: biochemical; conditions: against PRMT5 with no cofactor; read-out: No Co-factor IC50
PRMT5 [3] = biological target: T1, PRMT5; assay: PRMT5 inhibition assay with MTA as cofactor; type: biochemical; conditions: for IC50: against PRMT5 with MTA as cofactor; for SAM/MTA Ratio: ratio of Ki in the presence of SAM to Ki in the presence of MTA, Ki=IC50/1.5 (SAM), Ki=IC50/13.5 (MTA)
Excerpt: as §1

[4] = tested on: HAP1 MTAP-intact cell line; assay: SDMA in-cell western assay, HAP1 MTAP-intact; type: cell-based; conditions: for IC50: Homo sapiens
Procedure: (§2) Table 1 also indicates IC50 values in an MTAP-isogenic cell line pair for exemplary compounds in an SDMA in-cell western assay (columns 7-8). HAP1 MTAP-intact is a cell line in which endogenous levels of MTAP are expressed, and HAP1 MTAP-deleted is an MTAP-null cell line. For Table 1, “a*” and “aa*” indicates an IC50 of <1 μM, “b*” and “bb*” indicates an IC50 equal to or greater than 1 μM but less than 10 μM, and “c*” and “cc*” indicates an IC50 of greater than or equal to 10 μM in the HAP1 MTAP-intact and the HAP1 MTAP-deleted assays, respectively. In column 9, “A*” indicates an IC50 ratio greater than or equal to 10 fold between the IC50 in the HAP1 MTAP-intact cell line and the HAP1 MTAP-deleted cell line; “B*” indicates an IC50 ratio greater than or equal to 3 fold but lower than 10 fold between the IC50 in the HAP1 MTAP-intact cell line and the HAP1 MTAP-deleted cell line; “C*” indicates an IC50 ratio of less than 3 fold between the IC50 in the HAP1 MTAP-intact cell line and the HAP1 MTAP-deleted cell line. Compounds with a ratio in the SDMA in-cell western assay of equal to or greater than 3 fold are considered MTAP-selective.

[5] = tested on: HAP1 MTAP-deleted cell line; assay: SDMA in-cell western assay, HAP1 MTAP-deleted; type: cell-based; conditions: for IC50: Homo sapiens, HAP1 MTAP-deleted (MTAP-null) cell line; for MTAP Intact/Deleted Ratio: IC50 ratio HAP1 MTAP-intact / HAP1 MTAP-deleted, >=3 fold considered MTAP-selective
Procedure: as §2

T1 sequence (O14744 whole entry): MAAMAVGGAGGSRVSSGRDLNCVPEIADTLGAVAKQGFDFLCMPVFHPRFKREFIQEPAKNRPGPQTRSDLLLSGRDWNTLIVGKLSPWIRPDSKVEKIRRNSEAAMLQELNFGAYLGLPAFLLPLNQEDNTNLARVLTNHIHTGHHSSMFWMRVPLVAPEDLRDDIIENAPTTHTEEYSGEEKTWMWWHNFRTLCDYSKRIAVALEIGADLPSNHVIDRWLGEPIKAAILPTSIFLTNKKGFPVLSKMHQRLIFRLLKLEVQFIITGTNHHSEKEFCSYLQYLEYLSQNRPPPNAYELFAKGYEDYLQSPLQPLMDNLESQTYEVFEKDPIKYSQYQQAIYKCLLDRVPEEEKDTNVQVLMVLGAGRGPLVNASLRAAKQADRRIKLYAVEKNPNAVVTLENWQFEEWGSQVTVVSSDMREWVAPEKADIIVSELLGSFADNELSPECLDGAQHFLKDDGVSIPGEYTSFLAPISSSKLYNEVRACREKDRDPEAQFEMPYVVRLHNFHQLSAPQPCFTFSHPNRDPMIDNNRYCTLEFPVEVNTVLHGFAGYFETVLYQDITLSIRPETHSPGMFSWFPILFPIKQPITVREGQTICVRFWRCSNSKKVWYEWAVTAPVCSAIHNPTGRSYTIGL
T1 sequence (Q9BQA1 whole entry partner): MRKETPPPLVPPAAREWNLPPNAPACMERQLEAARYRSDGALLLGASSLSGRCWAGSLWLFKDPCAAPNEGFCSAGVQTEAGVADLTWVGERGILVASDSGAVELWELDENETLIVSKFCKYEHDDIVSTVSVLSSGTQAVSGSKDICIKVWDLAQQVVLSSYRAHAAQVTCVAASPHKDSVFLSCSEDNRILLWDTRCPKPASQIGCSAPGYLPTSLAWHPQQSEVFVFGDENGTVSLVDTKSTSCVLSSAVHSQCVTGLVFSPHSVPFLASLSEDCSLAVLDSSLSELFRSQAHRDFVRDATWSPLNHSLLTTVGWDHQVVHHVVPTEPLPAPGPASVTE

O=C(NC[C@@H](O)[C@@H]1Cc2ccc(OCc3cnco3)cc2CN1)c1ccc(C(=O)N2CCOCC2)cc1 [Compound 1, N—((R)-2-hydroxy-2-((S)-7-(oxazol-5-ylmethoxy)-1,2,3,4-tetrahydroisoquinolin-3-yl)ethyl)-4-(morpholine-4-carbonyl)benzamide]
IC50 (PRMT5 [1]): 50 to 500 nM
IC50 (PRMT5 [2]): ≥ 5000 nM
IC50 (PRMT5 [3]): 50 to 500 nM
SAM/MTA Ratio (PRMT5 [3]): A (a Ki ratio greater than or equal to 10 fold between the Ki in the presence of SAM and the Ki in the presence of MTA)
IC50 [4]: ≥ 10000 nM
IC50 [5]: ≥ 10000 nM
MTAP Intact/Deleted Ratio [5]: C* (an IC50 ratio of less than 3 fold between the IC50 in the HAP1 MTAP-intact cell line and the HAP1 MTAP-deleted cell line)

Cn1nccc1COc1ccc2c(c1)CN[C@H]([C@H](O)CNC(=O)c1ccc(C(=O)N3CCOCC3)cc1)C2 [Compound 2, N—((R)-2-hydroxy-2-((S)-7-((1-methyl-1H-pyrazol-5-yl)methoxy)-1,2,3,4-tetrahydroisoquinolin-3-yl)ethyl)-4-(morpholine-4-carbonyl)benzamide]
IC50 (PRMT5 [1]): 50 to 500 nM
IC50 (PRMT5 [2]): 500 to 5000 nM
IC50 (PRMT5 [3]): 50 to 500 nM
SAM/MTA Ratio (PRMT5 [3]): A (a Ki ratio greater than or equal to 10 fold between the Ki in the presence of SAM and the Ki in the presence of MTA)
IC50 [4]: ≥ 10000 nM
IC50 [5]: ≥ 10000 nM
MTAP Intact/Deleted Ratio [5]: C* (an IC50 ratio of less than 3 fold between the IC50 in the HAP1 MTAP-intact cell line and the HAP1 MTAP-deleted cell line)

Cc1ncoc1COc1ccc2c(c1)CN[C@H]([C@H](O)CNC(=O)c1ccc(C(=O)N3CCOCC3)cc1)C2 [Compound 3, N—((R)-2-hydroxy-2-((S)-7-((4-methyloxazol-5-yl)methoxy)-1,2,3,4-tetrahydroisoquinolin-3-yl)ethyl)-4-(morpholine-4-carbonyl)benzamide]
IC50 (PRMT5 [1]): 50 to 500 nM
IC50 (PRMT5 [2]): 500 to 5000 nM
IC50 (PRMT5 [3]): 50 to 500 nM
SAM/MTA Ratio (PRMT5 [3]): A (a Ki ratio greater than or equal to 10 fold between the Ki in the presence of SAM and the Ki in the presence of MTA)
IC50 [4]: ≥ 10000 nM
IC50 [5]: 1000 to 10000 nM
MTAP Intact/Deleted Ratio [5]: C* (an IC50 ratio of less than 3 fold between the IC50 in the HAP1 MTAP-intact cell line and the HAP1 MTAP-deleted cell line)

O=C(NC[C@@H](O)[C@@H]1Cc2ccc(OCc3cn[nH]c3)cc2CN1)c1ccc(C(=O)N2CCOCC2)cc1 [Compound 4, N—((R)-2-((S)-7-((1H-pyrazol-4-yl)methoxy)-1,2,3,4-tetrahydroisoquinolin-3-yl)-2-hydroxyethyl)-4-(morpholine-4-carbonyl)benzamide]
IC50 (PRMT5 [1]): 50 to 500 nM
IC50 (PRMT5 [2]): 50 to 500 nM
IC50 (PRMT5 [3]): 50 to 500 nM
SAM/MTA Ratio (PRMT5 [3]): A (a Ki ratio greater than or equal to 10 fold between the Ki in the presence of SAM and the Ki in the presence of MTA)
IC50 [4]: ≥ 10000 nM
IC50 [5]: 1000 to 10000 nM
MTAP Intact/Deleted Ratio [5]: C* (an IC50 ratio of less than 3 fold between the IC50 in the HAP1 MTAP-intact cell line and the HAP1 MTAP-deleted cell line)

CCOc1cc(C(=O)N2C3CCC2COC3)ccc1C(=O)NC[C@@H](O)[C@@H]1Cc2ccc(OCc3ccnn3C)cc2CN1 [Compound 5, 4-(3-oxa-8-azabicyclo[3.2.1]octane-8-carbonyl)-2-ethoxy-N—((R)-2-hydroxy-2-((S)-7-((1-methyl-1H-pyrazol-5-yl)methoxy)-1,2,3,4-tetrahydroisoquinolin-3-yl)ethyl)benzamide]
IC50 (PRMT5 [1]): 50 to 500 nM
IC50 (PRMT5 [2]): 500 to 5000 nM
IC50 (PRMT5 [3]): 50 to 500 nM
SAM/MTA Ratio (PRMT5 [3]): A (a Ki ratio greater than or equal to 10 fold between the Ki in the presence of SAM and the Ki in the presence of MTA)
IC50 [4]: < 1000 nM
IC50 [5]: < 1000 nM
MTAP Intact/Deleted Ratio [5]: C* (an IC50 ratio of less than 3 fold between the IC50 in the HAP1 MTAP-intact cell line and the HAP1 MTAP-deleted cell line)

CCOc1cc(C(=O)N2[C@@H]3CCC[C@H]2COC3)ccc1C(=O)NC[C@@H](O)[C@@H]1Cc2ccc(OCc3ccnn3C)cc2CN1 [Compound 6, 4-((1R,5S)-3-oxa-9-azabicyclo[3.3.1]nonane-9-carbonyl)-2-ethoxy-N—((R)-2-hydroxy-2-((S)-7-((1-methyl-1H-pyrazol-5-yl)methoxy)-1,2,3,4-tetrahydroisoquinolin-3-yl)ethyl)benzamide]
IC50 (PRMT5 [1]): 50 to 500 nM
IC50 (PRMT5 [2]): 500 to 5000 nM
IC50 (PRMT5 [3]): 50 to 500 nM
SAM/MTA Ratio (PRMT5 [3]): A (a Ki ratio greater than or equal to 10 fold between the Ki in the presence of SAM and the Ki in the presence of MTA)
IC50 [4]: < 1000 nM
IC50 [5]: < 1000 nM
MTAP Intact/Deleted Ratio [5]: C* (an IC50 ratio of less than 3 fold between the IC50 in the HAP1 MTAP-intact cell line and the HAP1 MTAP-deleted cell line)

O=C(NC[C@@H](O)[C@@H]1Cc2ccc(OCc3cnco3)cc2CN1)c1ccc(C(=O)N2[C@@H]3CCC[C@H]2COC3)cc1 [Compound 7, 4-((1R,5S)-3-oxa-9-azabicyclo[3.3.1]nonane-9-carbonyl)-N—((R)-2-hydroxy-2-((S)-7-(oxazol-5-ylmethoxy)-1,2,3,4-tetrahydroisoquinolin-3-yl)ethyl)benzamide]
IC50 (PRMT5 [1]): 50 to 500 nM
IC50 (PRMT5 [2]): 500 to 5000 nM
IC50 (PRMT5 [3]): 50 to 500 nM
SAM/MTA Ratio (PRMT5 [3]): A (a Ki ratio greater than or equal to 10 fold between the Ki in the presence of SAM and the Ki in the presence of MTA)
IC50 [4]: ≥ 10000 nM
IC50 [5]: 1000 to 10000 nM
MTAP Intact/Deleted Ratio [5]: B* (an IC50 ratio greater than or equal to 3 fold but lower than 10 fold between the IC50 in the HAP1 MTAP-intact cell line and the HAP1 MTAP-deleted cell line)

COCCN(C)c1nc(NC2COC2)cc(C(=O)NC[C@@H](O)[C@@H]2Cc3ccc(OCc4ocnc4C)cc3CN2)n1 [Compound 37, N—((R)-2-hydroxy-2-((S)-7-((4-methyloxazol-5-yl)methoxy)-1,2,3,4-tetrahydroisoquinolin-3-yl)ethyl)-2-((2-methoxyethyl)(methyl)amino)-6-(oxetan-3-ylamino)pyrimidine-4-carboxamide]
IC50 (PRMT5 [1]): 500 to 5000 nM
IC50 (PRMT5 [2]): ≥ 5000 nM
IC50 (PRMT5 [3]): 500 to 5000 nM
SAM/MTA Ratio (PRMT5 [3]): A (a Ki ratio greater than or equal to 10 fold between the Ki in the presence of SAM and the Ki in the presence of MTA)

CCCN(C)c1nc(NC2COC2)cc(C(=O)NC[C@@H](O)[C@@H]2Cc3ccc(OCc4ocnc4C)cc3CN2)n1 [Compound 38, N—((R)-2-hydroxy-2-((S)-7-((4-methyloxazol-5-yl)methoxy)-1,2,3,4-tetrahydroisoquinolin-3-yl)ethyl)-2-(methyl(propyl)amino)-6-(oxetan-3-ylamino)pyrimidine-4-carboxamide]
IC50 (PRMT5 [1]): 500 to 5000 nM
IC50 (PRMT5 [2]): ≥ 5000 nM
IC50 (PRMT5 [3]): 500 to 5000 nM
SAM/MTA Ratio (PRMT5 [3]): A (a Ki ratio greater than or equal to 10 fold between the Ki in the presence of SAM and the Ki in the presence of MTA)

CC(=O)N1CCC(Nc2cc(C(=O)NC[C@@H](O)[C@@H]3Cc4ccc(OCc5ocnc5C)cc4CN3)nc(N3CCN(C(C)C)CC3)n2)CC1 [Compound 72]
IC50 (PRMT5 [2]): 50 to 500 nM
IC50 (PRMT5 [3]): < 50 nM
HAP1 MTAP Intact IC50 [4]: B*
IC50 [5]: < 1000 nM
MTAP Intact/Deleted Ratio [5]: A* (an IC50 ratio greater than or equal to 10 fold between the IC50 in the HAP1 MTAP-intact cell line and the HAP1 MTAP-deleted cell line)

Cc1ncoc1COc1ccc2c(c1)CN[C@H]([C@H](O)CNC(=O)c1cc(NC3CCC3)nc(C3CCN(C(C)C)CC3)c1)C2 [Compound 78]
IC50 (PRMT5 [2]): 50 to 500 nM
IC50 (PRMT5 [3]): < 50 nM
IC50 [4]: 1000 to 10000 nM
IC50 [5]: < 1000 nM
MTAP Intact/Deleted Ratio [5]: A* (an IC50 ratio greater than or equal to 10 fold between the IC50 in the HAP1 MTAP-intact cell line and the HAP1 MTAP-deleted cell line)

COCCN(C)c1nc(NC2CCN(C(C)=O)CC2)cc(C(=O)NC[C@@H](O)[C@@H]2Cc3ccc(OCc4ocnc4C)cc3CN2)n1 [Compound 79]
IC50 (PRMT5 [2]): 50 to 500 nM
IC50 (PRMT5 [3]): < 50 nM
IC50 [4]: 1000 to 10000 nM
IC50 [5]: < 1000 nM
MTAP Intact/Deleted Ratio [5]: A* (an IC50 ratio greater than or equal to 10 fold between the IC50 in the HAP1 MTAP-intact cell line and the HAP1 MTAP-deleted cell line)

CC(=O)N1CCC(Nc2cc(C(=O)NC[C@@H](O)[C@@H]3Cc4ccc(OCc5ocnc5C)cc4CN3)nc(N3CCCC3)n2)CC1 [Compound 81]
IC50 (PRMT5 [2]): 50 to 500 nM
IC50 (PRMT5 [3]): < 50 nM
IC50 [4]: 1000 to 10000 nM
IC50 [5]: < 1000 nM
MTAP Intact/Deleted Ratio [5]: A* (an IC50 ratio greater than or equal to 10 fold between the IC50 in the HAP1 MTAP-intact cell line and the HAP1 MTAP-deleted cell line)

COCCN(C)c1nc(NC2CN(C(C)=O)C2)cc(C(=O)NC[C@@H](O)[C@@H]2Cc3ccc(OCc4ocnc4C)cc3CN2)n1 [Compound 82]
IC50 (PRMT5 [2]): 50 to 500 nM
IC50 (PRMT5 [3]): < 50 nM
IC50 [4]: ≥ 10000 nM
IC50 [5]: < 1000 nM
MTAP Intact/Deleted Ratio [5]: A* (an IC50 ratio greater than or equal to 10 fold between the IC50 in the HAP1 MTAP-intact cell line and the HAP1 MTAP-deleted cell line)
